Our source for the TGI values is PubChem BioAssay (NCI).

Some test systems named below: A549 NSCLC; BT-549 breast; DU-145 prostate; HCC-2998 colon; HCT-15 colon; M14 melanoma; MCF7 breast; NCI-H460 lung; OVCAR-8 ovarian; SNB-19 CNS; SNB-75 CNS; SR leukemia; SW-620 colon; UACC-62 melanoma; SK-OV-3 ovarian; T-47D breast; TK-10 renal.
What all share (assay): NCI-60 cell line screen, 48 h

SMILES strings stand for the structures.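 A five-concentration, 48-hour dose response in 96-well plates underlies each endpoint, interpolated linearly between surrounding concentrations. TGI: concentration producing complete growth inhibition.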

In the case of `c1ccc2c(c1)nn1c3ccc4nonc4c3[n-][n+]21`, the TGI in the experiment with A549 NSCLC, in the experiment with BT-549 breast, in the experiment with DU-145 prostate, with HCC-2998 colon, in the experiment with HCT-15 colon and in the experiment on M14 melanoma was greater than 100 µM in each case. Moreover, the TGI with MCF7 breast, with NCI-H460 lung, with OVCAR-8 ovarian, with SNB-19 CNS, in the experiment with SNB-75 CNS and with SR leukemia was greater than 100 µM throughout. For the same compound, the TGI with SW-620 colon and with UACC-62 melanoma was greater than 100 µM each time.
As for `CC(C)=Cc1cc(C)c2c3c(c(O)c(O)c(C)c13)C(C)=CC2=O`, the TGI amounted to 56 µM with A549 NSCLC; 89 µM with DU-145 prostate; 51.3 µM with HCT-15 colon; 48.9 µM in the experiment with M14 melanoma; 68.7 µM in the experiment with MCF7 breast; 55.9 µM in the experiment on NCI-H460 lung. For the same compound, the TGI with OVCAR-8 ovarian is greater than 100 µM; with SK-OV-3 ovarian, 89 µM; in the experiment with SNB-19 CNS, greater than 100 µM; in the experiment with SR leukemia, 78.1 µM; in the experiment with SW-620 colon, greater than 100 µM; in the experiment with T-47D breast, 49.3 µM. In the experiment on UACC-62 melanoma, this compound showed a TGI of 50.8 µM.
Consider `N#C/C(c1nc2ccccc2[nH]1)=c1\s/c(=C(/N)O)c(=N)n1-c1ccccc1`, for which the TGI in the experiment with A549 NSCLC, in the experiment with HCT-15 colon, with M14 melanoma, in the experiment with NCI-H460 lung, with OVCAR-8 ovarian and with SK-OV-3 ovarian was greater than 100 µM in each case. In addition, the TGI with SNB-19 CNS, in the experiment on SNB-75 CNS, with SW-620 colon, in the experiment on TK-10 renal and in the experiment on UACC-62 melanoma was greater than 100 µM in each case.
`COc1ccc2c3c([nH]c(=O)c2c1C(=O)O)-c1ccccc1CC3`: the TGI in the experiment on A549 NSCLC, in the experiment with HCC-2998 colon, in the experiment with HCT-15 colon, with M14 melanoma, in the experiment with NCI-H460 lung and in the experiment on SK-OV-3 ovarian was greater than 100 µM throughout. Further, the TGI with SNB-19 CNS, in the experiment on SNB-75 CNS, in the experiment with SR leukemia, in the experiment on SW-620 colon and with TK-10 renal was greater than 100 µM throughout.
For `CC(C)(C)C1CCC2c3c([nH]c4ncccc34)C3C(=O)N(c4ccccc4)C(=O)C3C2C1` (stereo unspecified), the TGI in the experiment with A549 NSCLC, in the experiment on HCC-2998 colon, in the experiment on HCT-15 colon, with M14 melanoma, with NCI-H460 lung and in the experiment on OVCAR-8 ovarian was greater than 100 µM each time. For the same compound, the TGI in the experiment with SK-OV-3 ovarian, in the experiment on SNB-19 CNS, with SNB-75 CNS, in the experiment with SR leukemia, with SW-620 colon and with TK-10 renal was greater than 100 µM each time. For the same compound, the TGI in the experiment with UACC-62 melanoma is greater than 100 µM.
Consider `O=C(c1cccc2ccccc12)C1S(=O)(=O)OCCOS1(=O)=O`, for which the TGI in the experiment on A549 NSCLC, in the experiment on BT-549 breast, in the experiment with DU-145 prostate, in the experiment with HCC-2998 colon, in the experiment with HCT-15 colon and in the experiment with M14 melanoma was greater than 100 µM throughout. The TGI in the experiment on MCF7 breast, in the experiment on NCI-H460 lung, with OVCAR-8 ovarian, in the experiment with SNB-19 CNS, with SR leukemia and in the experiment with TK-10 renal was greater than 100 µM each time.
In the case of `COc1cc2oc(=O)cc(C)c2c(OC)c1O`, the TGI in the experiment on A549 NSCLC, in the experiment with DU-145 prostate, in the experiment on HCT-15 colon, with M14 melanoma, in the experiment on MCF7 breast and in the experiment on OVCAR-8 ovarian was greater than 100 µM each time. The TGI in the experiment with SK-OV-3 ovarian, in the experiment with SNB-19 CNS, with SNB-75 CNS, in the experiment on SR leukemia, in the experiment with SW-620 colon and in the experiment with TK-10 renal was greater than 100 µM in each case. In addition, the TGI in the experiment on UACC-62 melanoma was greater than 100 µM.
With `CC(C)(C)c1cc2c(c(C(C)(C)C)c1O)CC(=O)O2`, the TGI in the experiment on A549 NSCLC is greater than 100 µM; in the experiment with DU-145 prostate it was greater than 100 µM; in the experiment on HCC-2998 colon it was 96.7 µM; in the experiment with HCT-15 colon it was greater than 100 µM; in the experiment on M14 melanoma, 62.5 µM; in the experiment with MCF7 breast, greater than 100 µM. Besides, the TGI in the experiment on NCI-H460 lung is greater than 100 µM; in the experiment with OVCAR-8 ovarian, greater than 100 µM; with SK-OV-3 ovarian it was greater than 100 µM; with SNB-19 CNS, greater than 100 µM; in the experiment on SW-620 colon, greater than 100 µM; with T-47D breast, 64.7 µM. The TGI is greater than 100 µM with TK-10 renal and 77.5 µM in the experiment on UACC-62 melanoma.
Regarding `O=C(c1ccco1)N(C(=S)N1CCN(c2ccccc2)CC1)C1CCCCC1`, the TGI with A549 NSCLC, in the experiment on HCT-15 colon, in the experiment on M14 melanoma, in the experiment on NCI-H460 lung, with OVCAR-8 ovarian and in the experiment with SK-OV-3 ovarian was greater than 100 µM in each case. The TGI with SNB-19 CNS, in the experiment on SNB-75 CNS, in the experiment on SR leukemia, with SW-620 colon, in the experiment on TK-10 renal and in the experiment with UACC-62 melanoma was greater than 100 µM in each case.
Consider `[N-]=[N+]=NC1(c2ccccc2)C(=O)C(Cl)=C(c2ccccc2)N(c2ccccc2)C1=O` (stereo unspecified), for which the TGI in the experiment with A549 NSCLC, in the experiment with HCC-2998 colon, with HCT-15 colon, in the experiment with M14 melanoma, in the experiment with NCI-H460 lung and in the experiment with OVCAR-8 ovarian was greater than 100 µM in each case. The TGI is 78.6 µM in the experiment on SK-OV-3 ovarian; greater than 100 µM in the experiment with SNB-19 CNS; greater than 100 µM in the experiment on SNB-75 CNS; greater than 100 µM with SR leukemia; greater than 100 µM in the experiment with SW-620 colon; greater than 100 µM in the experiment with TK-10 renal. Moreover, the TGI in the experiment on UACC-62 melanoma was greater than 100 µM.
